A word on the inhibition: it is the relative decrease from the control value, in per cent. In general, IC50 refers to the concentration at which inhibition is half-maximal.

Data set [1] can be described thus: Cytotoxicity against LPS-stimulated mouse RAW264.7 cells assessed as cell viability at 5 mg/L incubated for 24 hrs by alamar blue assay. The class given is cell-based. To be noted: LPS-stimulated RAW264.7 cells, read-out: Activity. In general terms: Alamar Blue is a resazurin reagent that responds to reducing activity.
Data set [2] concerns RAW264.7. The experiment in a line: Anti-inflammatory activity in mouse RAW264.7 cells assessed as inhibition of LPS-induced nitric oxide production at 5 mg/L pre-incubated for 2 hrs before LPS stimulation for 24 hrs. The class given is functional.
Data set [3] concerns RAW264.7. The experiment in a line: Anti-inflammatory activity in mouse RAW264.7 cells assessed as inhibition of LPS-induced nitric oxide production pre-incubated for 2 hrs before LPS stimulation for 24 hrs. The class given is functional, cell-based.

Consider `COc1ccc(-c2cc3ccccc3oc2=O)cc1OC`, for which the viability at 24 h, 5 mg/L in data set [1] was determined as 47%. Moreover, the inhibition at 5 µg/mL in the data set on RAW264.7 [2] amounted to 47.4%.
As to `COc1ccc(-c2cc3cccc(OC)c3oc2=O)cc1`, in data set [1], the viability at 24 h, 5 mg/L was found to be 81.3%. In the data set on RAW264.7 [2], the inhibition at 5 µg/mL was determined as 44.6%.
The corresponding values for `COc1cccc2cc(-c3ccccc3)c(=O)oc12` are 64.5% and 78.4%.
Consider `COc1ccc(-c2cc3ccccc3oc2=O)cc1`, for which, in data set [1], the viability at 24 h, 5 mg/L worked out at 93.4%. Also, in the data set on RAW264.7 [2], the inhibition at 5 µg/mL is 59.6%.
For `COc1cc(Br)cc2cc(-c3ccccc3)c(=O)oc12`, in that order: 29.6% and 111%.
The corresponding values for `COc1ccc(-c2cc3cc(Br)cc(OC)c3oc2=O)cc1` are 99.9% and 44.2%.
For `COc1ccc(-c2cc3cc(Cl)cc(Cl)c3oc2=O)cc1OC`, in that order: 118% and 27.3%.
Turning to `COc1ccc(-c2cc3cc(Cl)ccc3oc2=O)cc1`, the viability at 24 h, 5 mg/L in data set [1] is 102%. In addition, the inhibition at 5 µg/mL in the data set with RAW264.7 [2] was found to be 47.5%.
`COc1ccc(-c2cc3cccc(OC)c3oc2=O)cc1OC`: the viability at 24 h, 5 mg/L in data set [1] stood at 87.7%. The inhibition at 5 µg/mL with RAW264.7 [2] was determined as 32.3%.
Take `COc1cccc(-c2cc3cccc(OC)c3oc2=O)c1`: in data set [1], the viability at 24 h, 5 mg/L was determined as 34.2%. The inhibition at 5 µg/mL in the data set with RAW264.7 [2] amounted to 91.4%.
Consider `COc1cc(-c2cc3cccc(OC)c3oc2=O)cc(OC)c1OC`, for which the viability at 24 h, 5 mg/L in data set [1] came to 54.4%. Also, in the data set with RAW264.7 [2], the inhibition at 5 µg/mL amounted to 52%.
For `COc1cccc2cc(-c3ccc(Cl)cc3)c(=O)oc12`, the viability at 24 h, 5 mg/L in data set [1] was 93.5%. Moreover, the inhibition at 5 µg/mL in the data set on RAW264.7 [2] stood at 61.7%.
Consider `COc1cccc2cc(-c3ccc(F)cc3)c(=O)oc12`, for which, in data set [1], the viability at 24 h, 5 mg/L is 127%. Moreover, in the data set with RAW264.7 [2], the inhibition at 5 µg/mL was 47.6%.
For the molecule `COc1ccc(-c2cc3cc(Cl)ccc3oc2=O)cc1OC`, the viability at 24 h, 5 mg/L in data set [1] amounted to 105%. In addition, in the data set on RAW264.7 [2], the inhibition at 5 µg/mL stood at 31.2%.
The corresponding values for `COc1ccccc1-c1cc2cc(Cl)ccc2oc1=O` are 115% and 65.7%.
As to `COc1cc(-c2cc3cc(Cl)ccc3oc2=O)cc(OC)c1OC`, in data set [1], the viability at 24 h, 5 mg/L is 78.4%. The inhibition at 5 µg/mL in the data set on RAW264.7 [2] was 57.6%.
As for `O=c1oc2ccc(Cl)cc2cc1-c1ccc(Cl)cc1`, the viability at 24 h, 5 mg/L in data set [1] worked out at 114%. The inhibition at 5 µg/mL in the data set on RAW264.7 [2] was found to be 12.1%.
For the molecule `COc1ccc(-c2cc3cc(Cl)cc(Cl)c3oc2=O)cc1`, the viability at 24 h, 5 mg/L in data set [1] amounted to 99.3%. Moreover, the inhibition at 5 µg/mL with RAW264.7 [2] was determined as 20.8%.
The corresponding values for `COc1cccc(-c2cc3cc(Cl)cc(Cl)c3oc2=O)c1` are 105% and 36%.
With `COc1ccccc1-c1cc2cc(Cl)cc(Cl)c2oc1=O`, in the data set on RAW264.7 [3], the IC50 came out at 8.5 µM. For the same molecule, the viability at 24 h, 5 mg/L in data set [1] is 119%. In addition, the inhibition at 5 µg/mL in the data set on RAW264.7 [2] was determined as 76.9%.
As for `O=c1oc2c(Cl)cc(Cl)cc2cc1-c1ccccc1`, the viability at 24 h, 5 mg/L in data set [1] was 104%. Also, the inhibition at 5 µg/mL in the data set with RAW264.7 [2] stood at 53.4%.
For `COc1cccc(-c2cc3ccccc3oc2=O)c1`, in data set [1], the viability at 24 h, 5 mg/L worked out at 48.4%. For the same molecule, the inhibition at 5 µg/mL in the data set with RAW264.7 [2] was found to be 49.2%.
The corresponding values for `O=c1oc2ccccc2cc1-c1ccc(F)cc1` are 110% and 9.98%.
The corresponding values for `COc1ccc(-c2cc3cc(Br)cc(OC)c3oc2=O)cc1OC` are 98% and 53.5%.
Take `COc1cccc(-c2cc3cc(Br)cc(OC)c3oc2=O)c1`: the half-maximal inhibitory concentration (IC50) in the data set with RAW264.7 [3] worked out at 6.9 µM. In data set [1], the viability at 24 h, 5 mg/L was 116%. The inhibition at 5 µg/mL with RAW264.7 [2] stood at 72.3%.
Take `COc1ccccc1-c1cc2cc(Br)cc(OC)c2oc1=O`: the viability at 24 h, 5 mg/L in data set [1] came out at 95.7%. The inhibition at 5 µg/mL with RAW264.7 [2] is 47.6%.
The corresponding values for `COc1cc(-c2cc3cc(Br)cc(OC)c3oc2=O)cc(OC)c1OC` are 115% and 47.3%.
The corresponding values for `COc1cc(Br)cc2cc(-c3ccc(F)cc3)c(=O)oc12` are 103% and 33.9%.
For `COc1cc(Br)cc2cc(-c3cccc(OC(C)=O)c3)c(=O)oc12`, in that order: 66.5% and 84.1%.
With `COc1cc(Br)cc2cc(-c3cccc(O)c3)c(=O)oc12`, in data set [1], the viability at 24 h, 5 mg/L came to 28.5%. Also, the inhibition at 5 µg/mL in the data set with RAW264.7 [2] stood at 116%.
With `COc1cc(Br)cc2cc(-c3ccc(OC(C)=O)cc3)c(=O)oc12`, the viability at 24 h, 5 mg/L in data set [1] worked out at 61.7%. The inhibition at 5 µg/mL in the data set with RAW264.7 [2] was 77.8%.
For `COc1cc(Br)cc2cc(-c3ccc(O)cc3)c(=O)oc12`, in that order: 24.4% and 91.3%.
With `COc1ccc(OC)c(-c2cc3cc(Br)cc(OC)c3oc2=O)c1`, in data set [1], the viability at 24 h, 5 mg/L is 93.5%. For the same molecule, in the data set on RAW264.7 [2], the inhibition at 5 µg/mL came out at 45.9%.
The corresponding values for `COc1cc(Br)cc2cc(-c3cccnc3)c(=O)oc12` are 84.9% and 58.6%.
Regarding `O=c1oc2ccccc2cc1-c1ccccc1`, the viability at 24 h, 5 mg/L in data set [1] turned out to be 104%. Besides, the inhibition at 5 µg/mL with RAW264.7 [2] is 69.5%.
Consider `COc1cc(/C=C/C(=O)CC(=O)/C=C/c2ccc(O)c(OC)c2)ccc1O` [CURCUMIN], for which, in the data set with RAW264.7 [3], the IC50 came to 6.2 µM. In the data set with RAW264.7 [2], the inhibition at 5 µg/mL amounted to 77%.
